This note sets out measurements from the METLIN SMRT retention time set (Domingo-Almenara et al. 2019).

The series is described as follows: gradient 5% acetonitrile 3 min, to 50% in 2 min, to 85% in 15 min, held 3 min, 100 µL/min. The conditions noted are these: column: Zorbax Extend-C18 2.1 x 50 mm; eluents: water / acetonitrile, 0.1% formic acid. Put shortly: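 The system's dead and dwell volumes were 40 μL and 900 μL, with a Zorbax Extend-C18 column (2.1 × 50 mm, 1.8 μm) run at 100 μL/min in water and acetonitrile containing 0.1% formic acid each. Pure standards were analyzed in mixtures of ~100 molecules by HPLC–quadrupole time-of-flight mass spectrometry in positive and negative ionization mode. Retention time was assigned from computationally picked, manually inspected adduct peaks.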
Turning to `CCN1CCN(c2ncc(N3CCC(C(=O)NCC(C)C)CC3)cn2)CC1`, the RP-LC retention time came out at 582 s.

Compound `Cc1cc(NC(=O)Cn2c(=O)c3cc(C4CC4)nn3c3ncccc32)ccc1F` registered an RP-LC retention time of 818 s. On to `Cc1ccc(N2CC(c3noc(-c4ccccc4)n3)CC2=O)cc1` (stereo unspecified), for which the RP-LC retention time was determined as 819 s. The figure for `Cc1nnc(SCC(=O)c2ccc3c(c2)OCCO3)s1` is 746 s. The figure for `CCCc1cc(C2CCCN2C(=O)Nc2cc(C)ccc2OC)no1` (stereo unspecified) is 1020 s; for `Cc1cc(Cl)ccc1OCC(=O)N(Cc1ccc(N(C)C)cc1)C1CCS(=O)(=O)C1` (stereo unspecified) it is 849 s; for `CN(C)C(=O)c1ccc2c(c1)N(CC(=O)NCCC1=CCCCC1)C(=O)C1CCCCN21` (stereo unspecified) it is 830 s. On to `CCN(CC)Cc1ccc2cc(COC(=O)Nc3ccc(C(=O)NO)cc3)ccc2c1`, for which the RP-LC retention time is 654 s. In the case of `O=C1COc2ccc(S(=O)(=O)N3CCC(C(=O)NCc4ccc(Cl)cc4)CC3)cc2N1`, the RP-LC retention time turned out to be 832 s. The figure for `Cc1ccccc1Nc1c(-c2ccc3c(c2)OCO3)nc2cnccn12` is 860 s; for `COCCNC(=O)CS(=O)Cc1cnn(-c2ccccc2)c1-n1cccc1` (stereo unspecified) it is 678 s.

The compound `CC(NC(=O)c1ccccc1)c1nc(-c2cccc(-c3ccnn3C)c2)no1` (stereo unspecified) displayed an RP-LC retention time of 840 s. For the compound `CC(C)CNC(=O)N1CC(n2cc(C(=O)N3CCOCC3)nn2)C1`, the RP-LC retention time came out at 607 s.

`Cc1ccc(Sc2ccc(N3CCC(C(=O)N4CCN(c5ccccn5)CC4)CC3)nn2)cc1`: the RP-LC retention time was 646 s.

As for `Cc1ccc(NS(=O)(=O)c2cn(CC(C)C)c3ncccc23)cc1F`, the RP-LC retention time was determined as 953 s.

`COc1ccc(OC)c(CNC(=O)CN2C(=O)C(C)(C)c3cc(C)ccc32)c1` gave an RP-LC retention time of 689 s. The figure for `CCOc1ccc(NC(=O)N2CCC(C)(C(=O)NCc3ccc(F)cc3)CC2)cc1` is 796 s; for `CCOC(=O)Cc1csc(NC(=O)CN2CC(c3nc(C4CC4)no3)C2)n1` it is 575 s; for `CCOC(=O)c1c(C)[nH]c(CCC(=O)NC(C)c2ccccc2)c1C` (stereo unspecified) it is 853 s. `CCn1cc(CCN2CCN(S(=O)(=O)c3ccc(C#N)cc3)CC2)c2cccnc21` returned an RP-LC retention time of 634 s. Compound `Cc1nn(C)cc1S(=O)(=O)Nc1ccc2c(c1)OCCO2` gave an RP-LC retention time of 641 s. For the compound `CC1CCN(C(=O)c2cc3c(s2)CCC(C(=O)NCc2ccccn2)C3)CC1` (stereo unspecified), the RP-LC retention time is 668 s. Turning to `CC(C)NC(=O)Cn1c2ccccc2n2c(=O)cc(-c3ccc(F)cc3)nc12`, the RP-LC retention time was 702 s. As for `CNC(=O)[C@@H]1CN(C(=O)c2ccc(Cl)s2)C[C@H]1c1nc(COC)no1`, the RP-LC retention time was determined as 698 s. `CCCn1cc(SCC(N)=O)c2ccccc21`: the RP-LC retention time came to 730 s.

For `COC(=O)c1c(C)[nH]c(C(=O)N2CCCC(C(=O)NCc3ccccn3)C2)c1C` (stereo unspecified), the RP-LC retention time stood at 577 s. Compound `Cc1ccc2nc(-c3ccccc3Cl)c(Nc3ccc(Cl)cc3)n2c1` registered an RP-LC retention time of 780 s.

The compound `CCC1Oc2ccc(S(=O)(=O)N3CCC(C(=O)Nc4ccc(Cl)cc4)CC3)cc2NC1=O` (stereo unspecified) returned an RP-LC retention time of 950 s.

In the case of `Cc1nc(N2CCOCC2)c2c(C(=O)N3CCCc4ccccc43)c(C)oc2n1`, the RP-LC retention time was 853 s. The figure for `CCOC(=O)c1c(CN2CCOCC2)n(C)c2cc(Br)c(OC)cc12` is 698 s. Compound `O=S(=O)(c1ccc2nc(N3CCN(c4cccc(Cl)c4)CC3)ccc2c1)N1CCCC1` registered an RP-LC retention time of 1100 s. In the case of `CC1CCC(Nc2c(-c3cccc(F)c3)nc3ncccn23)CC1` (stereo unspecified), the RP-LC retention time came to 905 s. In the case of `CCNc1cc(N2CCC(CCC(=O)NCc3ccccc3OC)CC2)ncn1`, the RP-LC retention time was 650 s. Turning to `O=C(CCc1nc2ccccc2s1)N1CCC(c2noc(-c3ccncc3)n2)C1` (stereo unspecified), the RP-LC retention time was 760 s. In turn, `COc1cccc(C(=O)CC2(O)C(=O)Nc3ccc(F)cc32)c1` (stereo unspecified) came in with an RP-LC retention time of 707 s.

In turn, `Cc1cc(=O)n(CC(=O)Nc2ccc(F)cc2C)c(N2CCOCC2)n1` gave an RP-LC retention time of 644 s.

`Cc1ccccc1-c1noc(CCn2nc(-c3ccc4c(c3)OCO4)ccc2=O)n1` came in with an RP-LC retention time of 945 s.

Regarding `O=C(NCc1ccco1)C(=O)NCC1OCCN1S(=O)(=O)c1ccc([N+](=O)[O-])cc1` (stereo unspecified), the RP-LC retention time was 745 s. Turning to `CN(CCNC(=O)CN(c1ccccc1)S(=O)(=O)N(C)C)Cc1ccccc1`, the RP-LC retention time came out at 656 s. For the compound `Cc1ccc(Nc2nc(C(=O)NCCc3cnc[nH]3)nc3ccccc23)cc1`, the RP-LC retention time was determined as 590 s. In turn, `COc1ccc(-c2noc(C3CC(=O)N(c4ccc(Cl)cc4)C3)n2)cc1` (stereo unspecified) had an RP-LC retention time of 1040 s.

As for `CN1C(=O)C2CCCCN2c2ccc(C(=O)NCCCN3CCCCC3)cc21` (stereo unspecified), the RP-LC retention time was 600 s. `COc1ccc(S(=O)(=O)NCCc2noc(C)n2)cc1` showed an RP-LC retention time of 709 s.

Take `Cc1cc(C)nc(N2CCN(C)CC2)n1`: the RP-LC retention time amounted to 556 s.

`Cc1cccc(Nc2nc(-c3ccc(C(C)C)cc3)cs2)n1` gave an RP-LC retention time of 1130 s. With `COC(=O)c1cnc2nc(C)ccc2c1Nc1ccc(C)c(Cl)c1`, the RP-LC retention time was found to be 733 s. Consider `O=C(CSc1ccc(NC(=O)C2CC2)nn1)NCc1cccs1`, for which the RP-LC retention time worked out at 652 s. The figure for `O=C(Nc1nccn(-c2ccc(F)c(Cl)c2)c1=O)c1ccc2c(c1)OCO2` is 802 s. `CCCc1cc(N2CCN(C(=O)c3cccs3)CC2)nc2nnc(C)n12`: the RP-LC retention time came out at 613 s. `COCCCNc1c(-c2cccc(F)c2)nc2sc(C(=O)N3CCCC3)c(C)n12` yielded an RP-LC retention time of 824 s. In turn, `COc1ccc(Cl)cc1NC(=O)NCCc1nc2cccnc2n1CC(C)C` had an RP-LC retention time of 770 s. Turning to `Cc1ccnc(N2CCCC(C(=O)NCCc3ccccc3Cl)C2)n1` (stereo unspecified), the RP-LC retention time turned out to be 779 s. With `N#Cc1ccc(C(=O)NCCn2c(C(F)(F)F)nc3cccnc32)cc1`, the RP-LC retention time was found to be 720 s. `O=C(CCc1csc(NC(=O)c2ccc(F)cc2)n1)Nc1ccc(-n2cnnn2)cc1` gave an RP-LC retention time of 741 s. Turning to `CCc1nc(N)n(CC(=O)Nc2ccc(C)c(C)c2)c(=O)c1C`, the RP-LC retention time was determined as 650 s. As for `O=S(=O)(c1ccc(F)cc1)N1CCC(c2noc(C3CC3)n2)C1` (stereo unspecified), the figure is 885 s; as for `Cc1ccc(S(=O)(=O)N2CCC(C(=O)NCc3cscn3)CC2)c(C)c1`, 752 s.

`O=C(c1ccc(Cn2cncn2)cc1)N1CCN(c2ccc(Cl)cc2)CC1` yielded an RP-LC retention time of 774 s. As for `Cc1ccc(S(=O)(=O)Cc2nc(-c3cccc(Br)c3)no2)cc1`, the RP-LC retention time stood at 1040 s. As for `CC(C)c1nnc2ccc(N3CCCC3)nn12`, the figure is 819 s; as for `O=S(=O)(c1ccccc1Cl)N1CCc2nc(-c3ccccc3)ncc2C1`, 1080 s.

Take `CN1CC(CNS(=O)(=O)c2ccccc2C(F)(F)F)C2(CCCCC2)C1` (stereo unspecified): the RP-LC retention time is 696 s. `O=S(=O)(Nc1ccc(Br)cn1)c1ccccc1` had an RP-LC retention time of 780 s. With `COCCNC(=O)Cn1nc(C)c2sc(-c3ccccc3)nc2c1=O`, the RP-LC retention time worked out at 682 s.

`CCn1cc(C)c(C(=O)O)c1CC(=O)Nc1cc(Cl)c(OC)cc1OC` displayed an RP-LC retention time of 901 s. In turn, `CCN1CCN(S(=O)(=O)c2cccc(-c3nc(-c4ccccc4)no3)c2)CC1` returned an RP-LC retention time of 722 s. The figure for `O=C(CCC1CCN(c2cc(NC3CC3)ncn2)CC1)NCc1ccccc1Cl` is 676 s; for `CCc1ccc(C(=O)N2CCN(c3cc(-c4ccc(C)cc4)ncn3)CC2)cc1` it is 731 s. `O=C(CN1C(=O)COc2ccccc21)N1CCN(c2ccc(-c3noc(C4CCC4)n3)cc2)CC1` yielded an RP-LC retention time of 1000 s. In the case of `CCOC(=O)c1cc(S(=O)(=O)N2CCCC2C(=O)Nc2ccc(Br)c(C)c2)cn1C` (stereo unspecified), the RP-LC retention time amounted to 1080 s.

Consider `O=C(NCc1cccs1)c1cccc2c1CCN2C(=O)c1ccc(F)cc1`, for which the RP-LC retention time turned out to be 858 s. Turning to `COc1ccc(NC(=O)N2CCC3(C2)C(=O)N(C)c2ccccc23)cc1` (stereo unspecified), the RP-LC retention time is 745 s. The compound `CO[C@H]1C(=O)N(C(C)C)[C@H]1C1CCN(C(=O)c2ccco2)CC1` displayed an RP-LC retention time of 692 s.

`CN(C)[C@@H]1CN(Cc2ccccc2C#N)C[C@H]1CO`: the RP-LC retention time was determined as 518 s. The figure for `O=C(Cn1nc(N2CCSCC2)c2ccccc2c1=O)Nc1ccccc1F` is 928 s; for `COc1ccc(-c2csc(NC(=O)CS(=O)(=O)c3ccc(Cl)cc3)n2)cc1` it is 1010 s; for `CN(CCc1noc(-c2ccccc2)n1)C(=O)Nc1ccccc1Br` it is 956 s.

The compound `Cc1noc2ncn(CC(=O)Nc3ccc(F)cc3F)c(=O)c12` returned an RP-LC retention time of 744 s. Regarding `CC1CCCCN1CCNC(=O)C1CC(=O)N(c2ccc3c(c2)CCN3C(=O)C2CC2)C1` (stereo unspecified), the RP-LC retention time is 578 s. On to `Cc1cc(N2CCN(C)CC2)nc(N2CCN(S(=O)(=O)c3ccc(Br)cc3)CC2)n1`, for which the RP-LC retention time turned out to be 580 s.

`CCn1c(=O)n(CC)c2cc(S(=O)(=O)c3ccc(OC)cc3)c(NC(=O)C(C)C)cc21` came in with an RP-LC retention time of 836 s.
